Activity calls are given as the source filed them.
What was measured:
[1] = target: Cytochrome P450 3A4 (Homo sapiens, UniProt P08684); conditions: Potency;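 further: confirmatory qHTS run detecting inhibitors and substrates of CYP3A4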
[2] = target: T1, Corticotropin-releasing factor receptor 2/Corticotropin-releasing factor-binding protein (Homo sapiens, UniProt P24387+Q13324); assay: activators of CRF receptor 2 with binding protein – uHTS hits, confirmation (AID 602473); type: functional; conditions: read-out: EC50_Mean
T1 sequence (Q13324 whole entry): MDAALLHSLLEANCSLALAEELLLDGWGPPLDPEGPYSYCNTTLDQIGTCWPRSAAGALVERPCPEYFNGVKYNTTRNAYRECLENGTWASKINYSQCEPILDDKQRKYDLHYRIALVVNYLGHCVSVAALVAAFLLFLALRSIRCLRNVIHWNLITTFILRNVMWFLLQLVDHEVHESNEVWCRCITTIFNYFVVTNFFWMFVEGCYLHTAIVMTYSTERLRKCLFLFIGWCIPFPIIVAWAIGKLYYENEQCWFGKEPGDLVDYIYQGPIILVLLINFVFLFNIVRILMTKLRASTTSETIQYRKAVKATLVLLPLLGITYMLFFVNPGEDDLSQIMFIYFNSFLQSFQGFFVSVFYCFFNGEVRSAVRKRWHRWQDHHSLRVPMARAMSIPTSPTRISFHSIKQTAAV
T1 sequence (P24387 whole entry): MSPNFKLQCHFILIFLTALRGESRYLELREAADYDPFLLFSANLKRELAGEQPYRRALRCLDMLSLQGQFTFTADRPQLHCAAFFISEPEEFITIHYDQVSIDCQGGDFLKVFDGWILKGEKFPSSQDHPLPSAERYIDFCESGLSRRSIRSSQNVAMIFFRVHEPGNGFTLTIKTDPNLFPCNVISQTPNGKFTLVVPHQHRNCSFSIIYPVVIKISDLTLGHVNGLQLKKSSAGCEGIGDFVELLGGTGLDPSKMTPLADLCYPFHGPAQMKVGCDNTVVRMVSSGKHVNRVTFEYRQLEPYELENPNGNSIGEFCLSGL

[3] = blockers of CRF-binding protein–CRF-R2 complex – cell-based, uHTS hits, 384-well, dose response (AID 651639); type: functional, Homo sapiens; conditions: read-out: IC50_Mean
[4] = target: T1, Corticotropin-releasing factor receptor 2/Corticotropin-releasing factor-binding protein; assay: Dose Response confirmation of uHTS hits for small molecule antagonists of the CRF-binding protein and CRF-R2 receptor complex.; type: functional; conditions: read-out: IC50_Mean
[5] = A cytotoxicity screen of small molecule inhibitors of the PhoP region in Salmonella typhi identified in the primary screen. [Related pubchem assays: 1850, 1864, 1985 ]; type: functional
[6] = target: Prothrombin (Homo sapiens, UniProt P00734); assay: Thrombin 1536 HTS Dose Response Confirmation. [Related pubchem assays: 1046 (Thrombin 1536 HTS; hits were confirmed in this assay)]; type: functional
[7] = target: FAD-linked sulfhydryl oxidase ALR (Homo sapiens, UniProt P55789); assay: ALR-catalysed DTT oxidation blockers – biochemical, H2O2 detection, luminescence, cherry-pick, dose response (AID 493248)
Chain of FAD-linked sulfhydryl oxidase ALR (P55789 whole entry): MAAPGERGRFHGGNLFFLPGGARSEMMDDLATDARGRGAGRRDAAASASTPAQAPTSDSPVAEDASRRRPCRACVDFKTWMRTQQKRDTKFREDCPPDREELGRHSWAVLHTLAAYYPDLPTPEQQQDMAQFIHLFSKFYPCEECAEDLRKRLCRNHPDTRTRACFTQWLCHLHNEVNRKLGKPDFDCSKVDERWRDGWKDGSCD

[8] = target: Glyceraldehyde-3-phosphate dehydrogenase (Homo sapiens, UniProt P04406)
Chain of Glyceraldehyde-3-phosphate dehydrogenase (P04406 whole entry): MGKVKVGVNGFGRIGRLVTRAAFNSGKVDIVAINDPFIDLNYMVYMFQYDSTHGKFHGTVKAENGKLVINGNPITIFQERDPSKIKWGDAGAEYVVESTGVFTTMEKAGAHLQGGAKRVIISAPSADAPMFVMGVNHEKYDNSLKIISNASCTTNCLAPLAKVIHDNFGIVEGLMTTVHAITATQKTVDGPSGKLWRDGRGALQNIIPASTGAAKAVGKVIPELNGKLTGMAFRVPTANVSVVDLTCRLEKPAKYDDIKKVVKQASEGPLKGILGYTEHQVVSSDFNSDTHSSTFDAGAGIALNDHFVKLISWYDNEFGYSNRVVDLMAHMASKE

[9] = cells; type: functional
[10] = target: Large T antigen (Simian virus 40, UniProt P03070); type: functional, Betapolyomavirus macacae;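 further: Confirmatory-stage PubChem screen for compounds that inhibit SV40 T antigen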
Chain of Large T antigen (P03070 whole entry): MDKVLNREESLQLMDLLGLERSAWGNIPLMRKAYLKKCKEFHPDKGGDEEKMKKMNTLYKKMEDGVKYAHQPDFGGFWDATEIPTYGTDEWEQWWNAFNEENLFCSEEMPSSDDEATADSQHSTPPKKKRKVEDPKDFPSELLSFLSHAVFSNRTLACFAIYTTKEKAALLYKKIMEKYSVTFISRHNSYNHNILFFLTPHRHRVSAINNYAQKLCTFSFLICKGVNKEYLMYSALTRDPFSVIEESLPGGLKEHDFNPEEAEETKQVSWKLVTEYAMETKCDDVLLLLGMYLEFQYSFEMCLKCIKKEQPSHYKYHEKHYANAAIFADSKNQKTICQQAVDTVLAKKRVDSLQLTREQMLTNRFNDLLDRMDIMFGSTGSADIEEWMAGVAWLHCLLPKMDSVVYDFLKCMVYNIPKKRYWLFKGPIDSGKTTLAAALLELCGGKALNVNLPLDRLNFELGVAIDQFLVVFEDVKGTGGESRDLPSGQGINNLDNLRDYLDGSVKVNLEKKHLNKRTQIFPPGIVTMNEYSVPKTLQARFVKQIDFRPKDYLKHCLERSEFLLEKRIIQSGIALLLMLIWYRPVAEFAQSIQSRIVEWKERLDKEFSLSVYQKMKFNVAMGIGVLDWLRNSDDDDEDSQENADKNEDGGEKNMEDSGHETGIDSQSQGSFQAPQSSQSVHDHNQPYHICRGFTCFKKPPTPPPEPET

[11] = target: Genome polyprotein (dengue virus type 2, UniProt P29990); assay: flavivirus cap methylation enzyme inhibition – biochemical, confirmation dose response, primary screen (AID 588689); type: functional
Chain of Genome polyprotein (P29990 2492-3391 limits assumed): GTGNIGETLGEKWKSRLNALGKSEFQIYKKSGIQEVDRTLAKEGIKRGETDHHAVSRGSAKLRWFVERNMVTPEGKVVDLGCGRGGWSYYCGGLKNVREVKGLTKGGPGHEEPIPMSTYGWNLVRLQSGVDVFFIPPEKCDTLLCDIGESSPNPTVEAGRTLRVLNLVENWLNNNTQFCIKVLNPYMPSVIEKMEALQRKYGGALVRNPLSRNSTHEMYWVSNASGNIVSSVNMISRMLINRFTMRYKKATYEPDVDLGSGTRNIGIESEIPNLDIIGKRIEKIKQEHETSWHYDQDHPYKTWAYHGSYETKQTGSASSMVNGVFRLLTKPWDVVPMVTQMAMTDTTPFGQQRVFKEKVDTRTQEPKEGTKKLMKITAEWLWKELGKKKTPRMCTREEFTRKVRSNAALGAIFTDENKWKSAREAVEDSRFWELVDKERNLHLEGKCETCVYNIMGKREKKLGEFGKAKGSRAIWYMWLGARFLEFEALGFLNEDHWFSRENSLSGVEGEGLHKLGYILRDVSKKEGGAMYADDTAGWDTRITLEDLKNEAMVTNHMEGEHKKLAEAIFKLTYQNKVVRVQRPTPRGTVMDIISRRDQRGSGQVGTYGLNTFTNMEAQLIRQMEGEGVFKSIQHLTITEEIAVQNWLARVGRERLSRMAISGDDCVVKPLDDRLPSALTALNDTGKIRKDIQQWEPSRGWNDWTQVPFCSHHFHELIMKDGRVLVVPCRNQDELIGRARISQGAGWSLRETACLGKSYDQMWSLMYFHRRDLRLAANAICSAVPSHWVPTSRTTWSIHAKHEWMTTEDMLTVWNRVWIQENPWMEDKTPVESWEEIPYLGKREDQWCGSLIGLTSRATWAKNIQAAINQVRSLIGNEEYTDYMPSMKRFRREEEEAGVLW

[12] = target: DNA dC->dU-editing enzyme APOBEC-3G (Homo sapiens, UniProt Q9HC16); assay: Dose Response confirmation of small molecule APOBEC3G DNA Deaminase Inhibitors via a fluorescence-based single-stranded DNA deaminase assay. [Related pubchem assays (depositor defined):AID493012, AID493028]; type: functional
Chain of DNA dC->dU-editing enzyme APOBEC-3G (Q9HC16 whole entry): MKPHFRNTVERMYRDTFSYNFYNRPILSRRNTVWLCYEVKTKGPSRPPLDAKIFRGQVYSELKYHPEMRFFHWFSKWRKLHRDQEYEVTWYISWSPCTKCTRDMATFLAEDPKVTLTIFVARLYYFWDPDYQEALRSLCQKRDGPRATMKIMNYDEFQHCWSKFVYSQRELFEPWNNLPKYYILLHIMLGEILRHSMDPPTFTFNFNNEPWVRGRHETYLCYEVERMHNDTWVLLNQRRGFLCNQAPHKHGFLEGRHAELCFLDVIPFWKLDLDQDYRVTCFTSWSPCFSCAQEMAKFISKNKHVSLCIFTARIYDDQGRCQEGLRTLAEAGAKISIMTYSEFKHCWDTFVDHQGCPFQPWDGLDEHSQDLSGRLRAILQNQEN

[13] = target: T2, Protein RecA (Mycobacterium tuberculosis, UniProt P9WHJ3); assay: Fluorescence Cell-Free Homogeneous Dose Retest to Identify Inhibitors of RecA-Intein Splicing Activity. [Related pubchem assays (depositor defined):AID2097, AID2223, AID489010, AID492950]; type: functional
T2 sequence (P9WHJ3 whole entry): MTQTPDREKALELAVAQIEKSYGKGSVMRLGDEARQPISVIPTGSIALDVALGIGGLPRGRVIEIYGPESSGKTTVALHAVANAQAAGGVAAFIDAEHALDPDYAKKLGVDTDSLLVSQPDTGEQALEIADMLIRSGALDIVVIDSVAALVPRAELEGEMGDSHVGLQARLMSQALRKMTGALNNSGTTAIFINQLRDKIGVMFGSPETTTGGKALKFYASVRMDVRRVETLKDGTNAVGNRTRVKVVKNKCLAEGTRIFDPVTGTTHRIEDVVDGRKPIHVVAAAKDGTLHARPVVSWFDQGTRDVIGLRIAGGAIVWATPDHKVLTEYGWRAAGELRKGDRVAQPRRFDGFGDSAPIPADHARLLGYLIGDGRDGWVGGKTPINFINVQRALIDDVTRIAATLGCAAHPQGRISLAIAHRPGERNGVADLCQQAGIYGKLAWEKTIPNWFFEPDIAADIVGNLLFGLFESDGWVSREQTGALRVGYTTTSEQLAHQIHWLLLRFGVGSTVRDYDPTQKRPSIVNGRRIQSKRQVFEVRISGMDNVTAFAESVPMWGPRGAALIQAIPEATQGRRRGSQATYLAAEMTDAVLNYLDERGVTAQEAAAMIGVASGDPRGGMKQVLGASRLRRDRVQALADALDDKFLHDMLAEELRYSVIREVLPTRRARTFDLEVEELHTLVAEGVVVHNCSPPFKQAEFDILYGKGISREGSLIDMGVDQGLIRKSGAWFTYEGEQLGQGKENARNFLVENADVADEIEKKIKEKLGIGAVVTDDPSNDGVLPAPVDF

[14] = target: T3, Replicative DNA helicase DnaB (Mycobacterium tuberculosis, UniProt P9WMR3); assay: DnaB intein splicing inhibitors, dose response, biochemical, cell-free fluorescence (AID 449749); type: functional
T3 sequence (P9WMR3 whole entry): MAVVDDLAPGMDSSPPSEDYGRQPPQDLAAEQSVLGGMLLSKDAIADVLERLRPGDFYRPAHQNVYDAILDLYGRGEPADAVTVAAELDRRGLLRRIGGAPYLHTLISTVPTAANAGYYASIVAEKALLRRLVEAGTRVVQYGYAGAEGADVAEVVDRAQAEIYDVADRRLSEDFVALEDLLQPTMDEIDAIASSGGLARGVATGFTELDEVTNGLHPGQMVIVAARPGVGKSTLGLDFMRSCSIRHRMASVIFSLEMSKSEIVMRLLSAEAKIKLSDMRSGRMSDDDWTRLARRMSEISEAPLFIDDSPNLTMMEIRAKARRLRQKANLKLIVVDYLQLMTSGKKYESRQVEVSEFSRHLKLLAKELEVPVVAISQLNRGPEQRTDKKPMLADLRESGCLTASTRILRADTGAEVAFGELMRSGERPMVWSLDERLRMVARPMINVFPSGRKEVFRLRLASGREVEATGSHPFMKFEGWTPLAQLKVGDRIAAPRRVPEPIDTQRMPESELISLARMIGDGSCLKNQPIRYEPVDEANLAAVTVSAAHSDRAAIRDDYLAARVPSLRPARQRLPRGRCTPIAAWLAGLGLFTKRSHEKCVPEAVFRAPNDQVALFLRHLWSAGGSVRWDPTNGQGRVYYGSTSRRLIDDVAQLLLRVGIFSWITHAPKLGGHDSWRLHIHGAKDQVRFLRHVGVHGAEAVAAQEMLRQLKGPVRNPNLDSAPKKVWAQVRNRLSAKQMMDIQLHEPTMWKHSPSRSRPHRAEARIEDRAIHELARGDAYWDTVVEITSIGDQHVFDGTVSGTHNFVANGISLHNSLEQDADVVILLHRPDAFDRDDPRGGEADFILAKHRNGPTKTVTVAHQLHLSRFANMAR

[15] = NIH3T3 cell viability loss – ATP luminescence, mouse fibroblasts, counter-screen, dose response (AID 2010); type: functional, cell-based;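 further: cells exposed to compound for about 90 hours before reading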
[16] = non-specific 3'UTR reporter inhibition in Clone20-Shn3RL – cell-based, Renilla luciferase, cherry-picked, counter-screen for Shn3 inhibitor project, dose response (AID 624133); type: functional
[17] = reduction of Shn3 3'UTR-driven luciferase in osteoblasts – cell-based, Clone20 osteoblasts, firefly luciferase, cherry-picked, dose response (AID 624132); type: functional;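 further: firefly luciferase luminescence from reporter carrying the Shn3 3'UTR in osteoblasts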
[18] = Trypanosoma cruzi growth suppression in host cells – NIH3T3 host cells, beta-gal luminescence, confirmation (AID 2044); type: functional, cell-based;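 further: intracellular parasites grown in NIH/3T3 mouse fibroblasts as host cells; luminescent beta-galactosidase reporter signal from transgenic T. cruzi replicating inside host cells; inhibitors lower the luminescence signal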

Chain of Cytochrome P450 3A4 (P08684 whole entry): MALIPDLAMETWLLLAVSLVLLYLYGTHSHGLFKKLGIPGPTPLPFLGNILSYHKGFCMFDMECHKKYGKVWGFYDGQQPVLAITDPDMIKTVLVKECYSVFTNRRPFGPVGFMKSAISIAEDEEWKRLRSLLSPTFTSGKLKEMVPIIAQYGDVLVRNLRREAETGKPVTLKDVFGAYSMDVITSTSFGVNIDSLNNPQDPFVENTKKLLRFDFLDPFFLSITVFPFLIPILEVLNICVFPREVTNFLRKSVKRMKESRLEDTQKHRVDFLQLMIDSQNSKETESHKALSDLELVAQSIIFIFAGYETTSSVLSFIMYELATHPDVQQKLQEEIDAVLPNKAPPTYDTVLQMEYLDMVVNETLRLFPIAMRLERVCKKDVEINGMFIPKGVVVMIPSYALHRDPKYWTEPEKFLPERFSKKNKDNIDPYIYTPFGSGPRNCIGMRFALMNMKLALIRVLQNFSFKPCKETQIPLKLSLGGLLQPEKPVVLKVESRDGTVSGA

With `C=C(CC(=O)OC)C[C@]1(CC(=O)OC)CC2(CC=C(C)C)C(=O)C(C(=O)c3ccccc3)=C(OC(=O)c3ccc(Br)cc3)C(CC=C(C)C)(C1)C2=O` (stereo partly drawn) the AC50 [1] was 3.16 µM (inconclusive).
For `Cc1cc([N+](=O)[O-])ccc1NC1CCCC1`, the EC50 [2] was > 53 µM (inactive), the IC50 [3] was 12.8 µM (active) and the IC50 [4] was 7.24 µM (active).
In the case of `O=C(/C=C/c1ccccc1Cl)Nc1cccc(O)c1`, the EC50 [5] is reported as > 50 µM (active).
For `CCc1cccc(CC)c1NC(=O)c1cccc(N)c1`, the IC50 [6] was > 50 µM (not active).
For `CCOC(=O)Cc1csc(NC(=S)NC(=O)c2ccc([N+](=O)[O-])cc2)n1`, the EC50 [2] was 18 µM (active), the IC50 [3] was > 20 µM (inactive) and the IC50 [4] was 16.7 µM (active).
For `Cc1ccc(S(=O)(=O)NNc2ccccc2)c(C)c1`, the EC50 [5] was > 50 µM (active) and the AC50 [7] was 0.319 µM (active).
In the case of `Cc1c(O)c(O)cc2c1oc1c3ccccc3oc(=O)c21`, the AC50 [1] is reported as 20 µM (inconclusive).
With `COc1ccc(-c2coc3ccc(OC4OC(COC(C)=O)C(OC(C)=O)C(OC(C)=O)C4OC(C)=O)c(OC(C)=O)c3c2=O)cc1` (stereo not drawn) the AC50 [1] was 15.8 µM (inconclusive).
For `O=C(O)CSc1nc2ccc(Br)cc2o1`, the IC50 [8] was > 100 µM (not active).
In the case of `CC(C)c1ccc(NC(=O)COc2ccccn2)cc1`, the IC50 [6] is reported as > 50 µM (not active).
For `COc1cc(/C=C2/C(=O)NN(c3cccc(C)c3)C2=O)ccc1OC(=O)c1ccco1`, the IC50 [9] was 19.9 µM (active), the IC50 [10] was 32.1 µM (active) and the IC50 [11] was 64 µM (active).
For `S=C([S-])NCCNC(=S)[S-].[Zn+2]`, the AC50 [1] was 25.1 µM (inconclusive).
With `Cc1nc([N+](=O)[O-])c(SCc2ccc(O)c([N+](=O)[O-])c2)[nH]1` the IC50 [12] was 77.9 µM (active).
For `CSc1nc(-c2ccccc2)nn1C(=O)c1ccc(Cl)cc1`, the IC50 [6] was 0.725 µM (active), the EC50 [13] was 44.3 µM (active) and the AC50 [14] was 4.38 µM (active).
In the case of `O=C(Nc1cc2c3c(c1)C1CCCC1CN3CC1CCCC21)c1ccc([N+](=O)[O-])cc1` (stereo not drawn), the IC50 [6] is reported as > 50 µM (not active), the EC50 [15] is reported as > 60 µM (inconclusive) and the AC50 [16] is reported as 4.88 µM (active). The AC50 [17] was 2.2 µM (active) and the EC50 [18] was 1.07 µM (active).
